From patent US10738018B2, “Compounds for therapeutic use” (Dart NeuroScience, LLC, priority 2016, dated 2020)

Experiments:
mice = details: cited from earlier work
[1] = Conversion of Formula (I) compounds to HNK upon administration to a subject; type: in vivo; details: possible two-step process: hydrolysis under acid conditions, then enzymatic conversion by esterase action
Excerpt: In this prophetic example, exemplary compounds of Formula (I) yield HNK upon administration to a subject, such as a patient in a clinical trial, in one or more steps. For example, in one possible pathway illustrated in the following schematic, exemplary compounds of Formula (I) may yield HNK in a two-step process, consisting of hydrolysis in Step 1 under acid conditions, such as those in the stomach, and subsequent enzymatic conversion by esterase action.

SMILES	antidepressant activity (mice)	conversion to HNK upon administration [1]
N[C@@]1(c2ccccc2Cl)CCC[C@@H](O)C1=O [(2R,6R)-hydroxynorketamine]	has antidepressant activity	–
CC(O)C1=N[C@@]2(c3ccccc3Cl)CCC[C@@H](O1)C2=O (stereo partly drawn) [Example 2, (1R,5R)-5-(2-chlorophenyl)-3-(1-hydroxyethyl)-2-oxa-4 azabicyclo[3.3.1]non-3-en-9-one]	–	may give rise to HNK and lactic acid
